Reference: ChEMBL document CHEMBL4000165, “Chemosensitizing effect of Paris Saponin I on Camptothecin and 10-hydroxycamptothecin in lung cancer cells via p38 MAPK, ERK, and Akt signaling pathways” (Eur J Med Chem, 2017)
Activity calls are given as the source filed them. The calls are words filed in the database; no cut-off is given here.

What was measured:
NCI-H520 [1] = assay: Cytotoxicity against human NCI-H520 cells assessed as reduction in cell viability after 48 hrs by MTT assay; type: functional, cell-based; conditions: NCI-H520, 48 h
NCI-H446 [2] = assay: Cytotoxicity against human NCI-H446 cells assessed as reduction in cell viability after 48 hrs by MTT assay; type: functional, cell-based; conditions: NCI-H446, 48 h
NCI-H520 [3] = assay: Cytotoxicity against human NCI-H520 cells assessed as reduction in cell viability at 0.3 to 0.6 uM after 48 hrs in presence of CPT by MTT assay; type: functional, cell-based
NCI-H460 [4] = assay: Cytotoxicity against human NCI-H460 cells assessed as reduction in cell viability at 0.3 to 0.6 uM after 48 hrs in presence of HCPT by MTT assay; type: functional, cell-based
NCI-H520 [5] = assay: Cytotoxicity against human NCI-H520 cells assessed as reduction in cell viability at 0.3 to 0.6 uM after 48 hrs in presence of HCPT by MTT assay; type: functional, cell-based
NCI-H1299 [6] = assay: Induction of apoptosis in human NCI-H1299 cells at 0.3 uM up to 20 mins in presence of HCPT by acridine orange/ ethidium bromide staining based fluorescence microscopic method relative to control; type: functional
NCI-H460 [7] = assay: Induction of apoptosis in human NCI-H460 cells at 0.6 uM up to 20 mins in presence of CPT by acridine orange/ ethidium bromide staining based fluorescence microscopic method relative to control; type: functional
NCI-H460 [8] = assay: Induction of apoptosis in human NCI-H460 cells at 0.6 uM up to 20 mins in presence of HCPT by acridine orange/ ethidium bromide staining based fluorescence microscopic method relative to control; type: functional
NCI-H446 [9] = assay: Induction of apoptosis in human NCI-H446 cells at 0.6 uM up to 20 mins in presence of HCPT by acridine orange/ ethidium bromide staining based fluorescence microscopic method relative to control; type: functional
NCI-H460 [10] = assay: Induction of apoptosis in human NCI-H460 cells at 0.6 uM after 24 to 48 hrs by Annexin-V FITC/propidium iodide staining based flow cytometry; type: functional, cell-based
NCI-H1299 [11] = assay: Induction of apoptosis in human NCI-H1299 cells assessed as pro-apoptotic cells at 0.3 uM after 48 hrs in presence of CPT by Annexin-V FITC/propidium iodide staining based flow cytometry; type: functional
NCI-H1299 [12] = assay: Induction of apoptosis in human NCI-H1299 cells assessed as increase in pro-apoptotic cells at 0.3 uM after 48 hrs in presence of HCPT by Annexin-V FITC/propidium iodide staining based flow cytometry; type: functional, cell-based
NCI-H446 [13] = assay: Induction of apoptosis in human NCI-H446 cells at 0.6 uM in presence of HCPT by Annexin-V FITC/propidium iodide staining based flow cytometry; type: functional, cell-based; conditions: TDE = time-dependent effect
NCI-H460 [14] = assay: Induction of apoptosis in human NCI-H460 cells at 0.6 uM in presence of HCPT by Annexin-V FITC/propidium iodide staining based flow cytometry; type: functional, cell-based; conditions: TDE = time-dependent effect
NCI-H446 [15] = assay: Induction of apoptosis in human NCI-H446 cells assessed as activation of caspase-3/7 at 0.6 uM after 48 hrs in presence of CPT by luciferase reporter gene assay; type: functional, cell-based
NCI-H460 [16] = assay: Induction of apoptosis in human NCI-H460 cells assessed as activation of caspase-3/7 at 0.6 uM after 48 hrs in presence of CPT by luciferase reporter gene assay; type: functional, cell-based
NCI-H446 [17] = assay: Induction of apoptosis in human NCI-H446 cells assessed as activation of caspase-3/7 at 0.6 uM after 48 hrs in presence of HCPT by luciferase reporter gene assay; type: functional, cell-based
NCI-H1299 [18] = assay: Induction of apoptosis in human NCI-H1299 cells assessed as increase in caspase-9 expression at 0.3 uM in presence of CPT by Western blot method; type: functional, cell-based
NCI-H460 [19] = assay: Induction of apoptosis in human NCI-H460 cells assessed as increase in caspase-9 expression at 0.6 uM in presence of CPT by Western blot method; type: functional, cell-based
NCI-H446 [20] = assay: Induction of apoptosis in human NCI-H446 cells assessed as increase in caspase-9 expression at 0.6 uM in presence of CPT by Western blot method; type: functional, cell-based
NCI-H1299 [21] = assay: Induction of apoptosis in human NCI-H1299 cells assessed as increase in caspase-9 expression at 0.3 uM in presence of HCPT by Western blot method; type: functional, cell-based
NCI-H460 [22] = assay: Induction of apoptosis in human NCI-H460 cells assessed as increase in caspase-9 expression at 0.6 uM in presence of HCPT by Western blot method; type: functional, cell-based
NCI-H446 [23] = assay: Induction of apoptosis in human NCI-H446 cells assessed as increase in cytochrome-C expression at 0.6 uM in presence of CPT by Western blot method; type: functional, cell-based
NCI-H446 [24] = assay: Induction of apoptosis in human NCI-H446 cells assessed as increase in cleaved PARP expression at 0.6 uM in presence of CPT by Western blot method; type: functional, cell-based
NCI-H446 [25] = assay: Induction of apoptosis in human NCI-H446 cells assessed as downregulation of Bcl2 expression at 0.6 uM in presence of CPT by Western blot method; type: functional, cell-based
NCI-H446 [26] = assay: Induction of apoptosis in human NCI-H446 cells assessed as downregulation of Bcl-XL expression at 0.6 uM in presence of CPT by Western blot method; type: functional, cell-based
NCI-H1299 [27] = assay: Decrease in p38 MAPK protein expression in human NCI-H1299 cells at 0.3 uM in presence of HCPT by Western blot method; type: functional, cell-based
[28] = target: T1, MAP kinase p38 (Homo sapiens) (UniProt O15264+Q15759+Q16539+P53778); assay: Increase in p38 MAPK phosphorylation in human NCI-H1299 cells at 0.3 uM in presence of CPT by Western blot method; type: cell-based
NCI-H1299 [29] = assay: Effect on ERK1/2 protein expression in human NCI-H1299 cells at 0.3 uM in presence of HCPT by Western blot method; type: functional, cell-based
[30] = target: T1, MAP kinase p38 (Homo sapiens); assay: Increase in p38 MAPK phosphorylation in human NCI-H460 cells at 0.6 uM in presence of HCPT by Western blot method; type: cell-based
Homo sapiens [31] = organism: Homo sapiens; assay: Effect on Akt phosphorylation in human NCI-H446 cells at 0.6 uM in presence of HCPT by Western blot method; type: cell-based
Homo sapiens [32] = organism: Homo sapiens; assay: Effect on Akt phosphorylation in human NCI-H446 cells at 0.6 uM in presence of CPT by Western blot method; type: cell-based
NCI-H446 [33] = assay: Effect on ERK1/2 protein expression in human NCI-H446 cells at 0.6 uM in presence of CPT by Western blot method; type: functional, cell-based
[34] = target: Mitogen-activated protein kinase; ERK1/ERK2 (Homo sapiens) (UniProt P27361+P28482); assay: Effect on ERK1/2 phosphorylation in human NCI-H446 cells at 0.6 uM in presence of HCPT by Western blot method; type: cell-based
NCI-H446 [35] = assay: Effect on Akt protein expression in human NCI-H446 cells at 0.6 uM in presence of HCPT by Western blot method; type: functional, cell-based

Sequence of Mitogen-activated protein kinase; ERK1/ERK2 (Homo sapiens) (P27361 whole entry, looked up): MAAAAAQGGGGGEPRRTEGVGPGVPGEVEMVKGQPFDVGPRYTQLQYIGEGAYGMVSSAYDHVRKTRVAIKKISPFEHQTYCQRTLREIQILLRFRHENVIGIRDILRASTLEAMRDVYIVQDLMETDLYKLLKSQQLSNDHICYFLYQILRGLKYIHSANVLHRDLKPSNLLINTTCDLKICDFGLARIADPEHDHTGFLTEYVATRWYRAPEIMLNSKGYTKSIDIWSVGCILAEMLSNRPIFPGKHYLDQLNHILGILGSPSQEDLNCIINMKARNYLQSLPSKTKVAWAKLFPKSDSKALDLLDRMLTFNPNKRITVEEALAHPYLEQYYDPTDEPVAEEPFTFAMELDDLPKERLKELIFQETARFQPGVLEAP
Sequence of Mitogen-activated protein kinase; ERK1/ERK2 (Homo sapiens) (P28482 whole entry, looked up): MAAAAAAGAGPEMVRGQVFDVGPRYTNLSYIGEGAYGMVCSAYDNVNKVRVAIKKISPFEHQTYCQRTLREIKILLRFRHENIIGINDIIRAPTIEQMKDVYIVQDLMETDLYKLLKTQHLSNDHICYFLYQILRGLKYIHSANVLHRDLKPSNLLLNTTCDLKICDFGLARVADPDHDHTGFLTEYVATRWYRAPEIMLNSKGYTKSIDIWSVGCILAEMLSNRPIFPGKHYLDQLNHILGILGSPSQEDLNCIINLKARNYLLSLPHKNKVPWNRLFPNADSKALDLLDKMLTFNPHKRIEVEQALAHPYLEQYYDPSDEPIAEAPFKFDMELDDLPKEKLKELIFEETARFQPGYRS

`C[C@@H]1CC[C@@]2(OC1)O[C@H]1C[C@H]3[C@@H]4CC=C5C[C@@H](O[C@@H]6O[C@H](CO)[C@@H](O[C@@H]7O[C@@H](CO)[C@H](O)[C@H]7O)[C@H](O)[C@H]6O[C@@H]6O[C@@H](C)[C@H](O)[C@@H](O)[C@H]6O)CC[C@]5(C)[C@H]4CC[C@]3(C)[C@H]1[C@@H]2C` was tested, and the IC50 (NCI-H520 [1]) was less than 1000 nM, the IC50 (NCI-H446 [2]) was less than 1000 nM and the Activity (NCI-H520 [3]) was “Active”. The Activity (NCI-H460 [4]) was “Active”, the Activity (NCI-H520 [5]) was “Active” and the “fold change (FC)” value (NCI-H1299 [6]) was 2. For the same molecule, the “fold change (FC)” value (NCI-H460 [7]) was 2, the “fold change (FC)” value (NCI-H460 [8]) was 2 and the “fold change (FC)” value (NCI-H446 [9]) was 2. For the same molecule, the Activity (NCI-H460 [10]) was “Active”, the Activity (NCI-H1299 [11]) was 60% and the Activity (NCI-H1299 [12]) was “Active”. For the same molecule, the Activity (NCI-H446 [13]) was “Tde”, the Activity (NCI-H460 [14]) was “Tde” and the Activity (NCI-H446 [15]) was “Active”. The Activity (NCI-H460 [16]) was “Active”, the Activity (NCI-H446 [17]) was “Active” and the Activity (NCI-H1299 [18]) was “Active”. For the same molecule, the Activity (NCI-H460 [19]) was “Active”, the Activity (NCI-H446 [20]) was “Active” and the Activity (NCI-H1299 [21]) was “Active”. For the same molecule, the Activity (NCI-H460 [22]) was “Active”, the Activity (NCI-H446 [23]) was “Active” and the Activity (NCI-H446 [24]) was “Active”. For the same molecule, the Activity (NCI-H446 [25]) was “Active”, the Activity (NCI-H446 [26]) was “Active” and the Activity (NCI-H1299 [27]) was “Active”. The Activity [28] was “Active”, the Activity (NCI-H1299 [29]) was “inactive” and the Activity [30] was “Active”. The Activity (Homo sapiens [31]) was “Active”, the Activity (Homo sapiens [32]) was “Active” and the Activity (NCI-H446 [33]) was “Active”. The Activity [34] was “Active” and the Activity (NCI-H446 [35]) was “inactive”.
